Data reported in ChEMBL document CHEMBL3779792, “Anti-proliferative evaluation of monoterpene derivatives against leukemia” (Eur J Med Chem, 2016).
pEC50: −log10 of the molar value. Active and inactive are the calls of the source. The rule behind the calls is not given here.

Experiments:
BJ = test: Cytotoxicity against human BJ cells after 72 hrs by Cell-Titer Glo assay; type: cell-based
[1] = Cytotoxicity against human NALM6 cells after 72 hrs by Cell-Titer Glo assay; type: functional, cell-based; conditions: NALM-6, 72 h
HEK293 = test: Cytotoxicity against HEK293 cells after 72 hrs by Cell-Titer Glo assay; type: cell-based; conditions: Homo sapiens, HEK293, 72 h
[2] = Cytotoxicity against human SEM cells after 72 hrs by Cell-Titer Glo assay; type: functional, cell-based
Raji = test: Cytotoxicity against human Raji cells after 72 hrs by Cell-Titer Glo assay; type: functional, cell-based
Jurkat = test: Cytotoxicity against human Jurkat cells after 72 hrs by Cell-Titer Glo assay; type: functional, cell-based
HepG2 = test: Cytotoxicity against human HepG2 cells after 72 hrs by Cell-Titer Glo assay; type: functional, cell-based; conditions: HepG2, 72 h
SEM cells [3] = test: Induction of apoptosis in human SEM cells assessed as late apoptotic cells at 1 uM measured after 24 hrs by annexin V-propidium iodide staining based flow cytometric analysis (reference value: 7.2%); type: functional
SEM cells [4] = test: Induction of apoptosis in human SEM cells assessed as necrotic cells at 1 uM measured after 24 hrs by annexin V-propidium iodide staining based flow cytometric analysis (reference value: 0.0%); type: functional
SEM cells [5] = test: Effect on cell cycle in human SEM cells assessed as accumulation at G0/G1 phase at 1 uM after 24 hrs by propidium iodide staining based flow cytometry analysis (reference value: 45.75%); type: functional
NALM-6 [6] = test: Induction of apoptosis in human NALM6 cells assessed as cleaved PARP level at 0.5 uM measured after 12 hrs by immunoblot analysis; type: functional, cell-based
NALM-6 [7] = test: Induction of apoptosis in human NALM6 cells assessed as early apoptotic cells at 0.5 uM measured after 24 hrs by annexin V-propidium iodide staining based flow cytometric analysis (reference value: 91.5%); type: functional
SEM cells [8] = test: Induction of apoptosis in human SEM cells assessed as viable cells at 1 uM measured after 24 hrs by annexin V-propidium iodide staining based flow cytometric analysis (reference value: 1.5%); type: functional; conditions: read-out: Activity
NALM-6 [9] = test: Induction of apoptosis in human NALM6 cells assessed as activated caspase3 level at 0.5 uM after 3 hrs by immunoblot analysis; type: functional, cell-based
NALM-6 [10] = test: Induction of apoptosis in human NALM6 cells assessed as cleaved PARP level at 0.5 uM measured after 3 and 6 hrs by immunoblot analysis; type: functional, cell-based
NALM-6 [11] = test: Induction of apoptosis in human NALM6 cells assessed as necrotic cells at 0.5 uM measured after 24 hrs by annexin V-propidium iodide staining based flow cytometric analysis (reference value: 0.0%); type: functional
SEM cells [12] = test: Induction of apoptosis in human SEM cells assessed as early apoptotic cells at 1 uM measured after 24 hrs by annexin V-propidium iodide staining based flow cytometric analysis (reference value: 85.3%); type: functional
NALM-6 [13] = test: Induction of apoptosis in human NALM6 cells assessed as late apoptotic cells at 0.5 uM measured after 24 hrs by annexin V-propidium iodide staining based flow cytometric analysis (reference value: 4.3%); type: functional
SEM cells [14] = test: Induction of apoptosis in human SEM cells assessed as activated caspase3 levels at 0.5 uM after 6 hrs by immunoblot analysis; type: functional, cell-based
[15] = Cytotoxicity in human SEM cells assessed as cell death at 1 uM after 24 hrs; type: cell-based

SMILES	pEC50 (BJ)	pEC50 [1]	pEC50 (HEK293)	pEC50 [2]	pEC50 (Raji)	pEC50 (Jurkat)	pEC50 (HepG2)	Activity (SEM cells [3]) [%]	Activity (SEM cells [4]) [%]	Activity (SEM cells [5]) [%]	Activity (NALM-6 [6])	Activity (NALM-6 [7]) [%]	viability at 1 µM (SEM cells [8]) [%]	Activity (NALM-6 [9])	Activity (NALM-6 [10])	Activity (NALM-6 [11]) [%]	Activity (SEM cells [12]) [%]	Activity (NALM-6 [13]) [%]	Activity (SEM cells [14])	Activity [15]
C=C[C@@](C)(/C=C/c1ccc(O)cc1)CC/C=C(C)/C=C/C(=O)OCc1ccccc1	< 4.44	4.44	< 4.44	< 4.44	< 4.58	< 4.31	< 4.28													
C=C[C@@](C)(/C=C/c1ccc(O)cc1)CCC(O)C(C)(C)O (stereo partly drawn)	< 4.44	< 4.36	< 4.44	< 4.44	< 4.58	< 4.31	< 4.28													
C=C[C@@](C)(/C=C/c1ccc(O)c(/C=C/C=C/c2ccccc2)c1)CCC=C(C)C	< 4.44	< 4.36	< 4.44	< 4.82	< 4.58	< 4.31	< 4.28													
COc1ccc(/C=C/[C@@](C)(/C=C/c2ccc(O)c(C=O)c2)CCC=C(C)C)cc1	5.01	< 4.36	5.64	5.34	4.89	< 4.31	< 4.58													
CN[C@@H]1C[C@H]2O[C@@](C)([C@@H]1OC)n1c3ccccc3c3c4c(c5c6ccccc6n2c5c31)C(=O)NC4 [STAUROSPORINE]								85.3	0	100	Active	49	5.5	Active	Active	0	2.6	25	Active	Toxic
C=C[C@@](C)(/C=C/c1ccc(O)cc1)CC/C=C/C(=O)OCc1ccccc1	< 4.44	< 4.36	< 4.44	< 4.44	< 4.58	< 4.31	< 4.28													
COc1ccc(/C=C/[C@@](C)(/C=C/c2ccc(O)c(/C=C/C#N)c2)CCC=C(C)C)cc1	< 4.62	4.78	< 4.44	5.34	< 4.58	< 4.31	< 4.58													
C=C[C@@](C)(/C=C/c1ccc(O)c(/C=C/C(=O)O)c1)CCC=C(C)C	< 4.44	< 4.36	< 4.44	< 4.44	< 4.58	< 4.31	< 4.28													
C=C[C@@](C)(/C=C/c1ccc(OC)cc1)CCC=C(C)C	< 4.44	< 4.36	< 4.44	< 4.44	< 4.58	< 4.31	< 4.28													
C=C[C@@](C)(/C=C/c1ccc(O)c(/C=C/C(=O)OCC)c1)CCC=C(C)C	< 4.44	4.68	< 4.44	< 4.44	< 4.58	< 4.31	< 4.28													
COc1ccc(/C=C/[C@@](C)(/C=C/c2ccc(O)c(/C=C/C(=O)c3ccccc3)c2)CCC=C(C)C)cc1	< 4.44	< 4.36	< 4.44	4.52	< 4.58	< 4.31	< 4.28													
C=C[C@@](C)(/C=C/c1ccc(O)c(/C=C/C#N)c1)CCC=C(C)C	< 4.44	< 4.36	< 4.44	< 4.44	< 4.58	< 4.31	< 4.28													
C=C[C@@](C)(/C=C/c1ccc(O)c(/C=C/c2ccc(Cl)cc2)c1)CCC=C(C)C	< 4.44	< 4.36	< 4.44	< 4.44	< 4.58	< 4.31	< 4.28													
CCOC(=O)/C=C/c1cc(/C=C/[C@](C)(/C=C/c2ccc(OC)cc2)CCC=C(C)C)ccc1O	< 4.44	< 4.36	< 4.44	< 4.44	< 4.58	< 4.31	< 4.28													
C=C[C@@](C)(/C=C/c1ccc(O)cc1)CCCO	< 4.44	< 4.36	< 4.44	< 4.44	< 4.58	< 4.31	< 4.28													
C=C[C@](C)(CCCC(C)C)CCc1ccc(O)cc1	< 4.44	4.56	< 4.44	< 4.44	< 4.58	< 4.31	< 4.28													
